± gives the expanded uncertainty stated by the source.
Test: mn = molality of the nth substance listed, in mol/kg
Details: 101 kPa, Liquid; for speed of sound: Sing-around technique in a fixed-path interferometer; for mass density: Vibrating tube method

With NC(CO)(CO)CO.O=C(c1ccccc1)c1ccc2n1CCC2C(=O)O (stereo unspecified) [ketorolac tromethamine] + O the speed of sound (293.15 K, m1 = 0.01) was 1485.6 ± 1.3 m/s, the speed of sound (293.15 K, m1 = 0.02) was 1486.8 ± 1.3 m/s and the speed of sound (293.15 K, m1 = 0.03) was 1488.7 ± 1.3 m/s. The speed of sound (293.15 K, m1 = 0.04) was 1491 ± 1.3 m/s, the speed of sound (293.15 K, m1 = 0.05) was 1492.1 ± 1.3 m/s and the speed of sound (293.15 K, m1 = 0.075) was 1497.4 ± 1.3 m/s. For the same compound, the speed of sound (293.15 K, m1 = 0.1) was 1501.5 ± 1.3 m/s, the speed of sound (293.15 K, m1 = 0.125) was 1506 ± 1.3 m/s and the speed of sound (293.15 K, m1 = 0.15) was 1509.9 ± 1.3 m/s. For the same compound, the speed of sound (293.15 K, m1 = 0.175) was 1514.6 ± 1.3 m/s, the speed of sound (293.15 K, m1 = 0.2) was 1518.9 ± 1.3 m/s and the speed of sound (293.15 K, m1 = 0.25) was 1525.6 ± 1.3 m/s. For the same compound, the mass density (293.15 K, m1 = 0.01) was 999.38 ± 0.22 kg/m3, the mass density (293.15 K, m1 = 0.02) was 1000.35 ± 0.21 kg/m3 and the mass density (293.15 K, m1 = 0.03) was 1001.41 ± 0.23 kg/m3. For the same compound, the mass density (293.15 K, m1 = 0.04) was 1002.57 ± 0.19 kg/m3, the mass density (293.15 K, m1 = 0.05) was 1003.3 ± 0.21 kg/m3 and the mass density (293.15 K, m1 = 0.075) was 1006.13 ± 0.22 kg/m3. It also gave a mass density (293.15 K, m1 = 0.1) of 1008.75 ± 0.22 kg/m3, a mass density (293.15 K, m1 = 0.125) of 1011.43 ± 0.22 kg/m3 and a mass density (293.15 K, m1 = 0.15) of 1014.02 ± 0.21 kg/m3. It also gave a mass density (293.15 K, m1 = 0.175) of 1016.56 ± 0.21 kg/m3, a mass density (293.15 K, m1 = 0.2) of 1019.22 ± 0.22 kg/m3 and a mass density (293.15 K, m1 = 0.25) of 1024.63 ± 0.22 kg/m3. For the same compound, the speed of sound (298.15 K, m1 = 0.01) was 1499.7 ± 1.3 m/s, the speed of sound (298.15 K, m1 = 0.02) was 1500.7 ± 1.3 m/s and the speed of sound (298.15 K, m1 = 0.03) was 1502.5 ± 1.3 m/s. The speed of sound (298.15 K, m1 = 0.04) was 1504.7 ± 1.3 m/s, the speed of sound (298.15 K, m1 = 0.05) was 1505.7 ± 1.3 m/s and the speed of sound (298.15 K, m1 = 0.075) was 1510.7 ± 1.3 m/s. The speed of sound (298.15 K, m1 = 0.1) was 1514.5 ± 1.3 m/s, the speed of sound (298.15 K, m1 = 0.125) was 1518.8 ± 1.3 m/s and the speed of sound (298.15 K, m1 = 0.15) was 1522.5 ± 1.3 m/s. It also gave a speed of sound (298.15 K, m1 = 0.175) of 1527.1 ± 1.3 m/s, a speed of sound (298.15 K, m1 = 0.2) of 1531.4 ± 1.3 m/s and a speed of sound (298.15 K, m1 = 0.25) of 1537.4 ± 1.3 m/s. For the same compound, the mass density (298.15 K, m1 = 0.01) was 998.2 ± 0.22 kg/m3, the mass density (298.15 K, m1 = 0.02) was 999.17 ± 0.21 kg/m3 and the mass density (298.15 K, m1 = 0.03) was 1000.21 ± 0.21 kg/m3. It also gave a mass density (298.15 K, m1 = 0.04) of 1001.23 ± 0.19 kg/m3, a mass density (298.15 K, m1 = 0.05) of 1002.07 ± 0.22 kg/m3 and a mass density (298.15 K, m1 = 0.075) of 1004.88 ± 0.22 kg/m3. It also gave a mass density (298.15 K, m1 = 0.1) of 1007.46 ± 0.21 kg/m3, a mass density (298.15 K, m1 = 0.125) of 1010.1 ± 0.21 kg/m3 and a mass density (298.15 K, m1 = 0.15) of 1012.67 ± 0.21 kg/m3. For the same compound, the mass density (298.15 K, m1 = 0.175) was 1015.19 ± 0.21 kg/m3, the mass density (298.15 K, m1 = 0.2) was 1017.8 ± 0.22 kg/m3 and the mass density (298.15 K, m1 = 0.25) was 1023.16 ± 0.22 kg/m3. It also gave a speed of sound (303.15 K, m1 = 0.01) of 1512 ± 1.3 m/s, a speed of sound (303.15 K, m1 = 0.02) of 1512.9 ± 1.3 m/s and a speed of sound (303.15 K, m1 = 0.03) of 1514.6 ± 1.3 m/s. For the same compound, the speed of sound (303.15 K, m1 = 0.04) was 1516.7 ± 1.3 m/s, the speed of sound (303.15 K, m1 = 0.05) was 1517.6 ± 1.3 m/s and the speed of sound (303.15 K, m1 = 0.075) was 1522.3 ± 1.3 m/s. The speed of sound (303.15 K, m1 = 0.1) was 1525.8 ± 1.3 m/s, the speed of sound (303.15 K, m1 = 0.125) was 1530 ± 1.3 m/s and the speed of sound (303.15 K, m1 = 0.15) was 1533.4 ± 1.3 m/s. It also gave a speed of sound (303.15 K, m1 = 0.175) of 1538 ± 1.3 m/s, a speed of sound (303.15 K, m1 = 0.2) of 1542.3 ± 1.3 m/s and a speed of sound (303.15 K, m1 = 0.25) of 1547.6 ± 1.3 m/s. It also gave a mass density (303.15 K, m1 = 0.01) of 996.79 ± 0.22 kg/m3, a mass density (303.15 K, m1 = 0.02) of 997.75 ± 0.2 kg/m3 and a mass density (303.15 K, m1 = 0.03) of 998.78 ± 0.21 kg/m3. The mass density (303.15 K, m1 = 0.04) was 999.83 ± 0.19 kg/m3, the mass density (303.15 K, m1 = 0.05) was 1000.62 ± 0.22 kg/m3 and the mass density (303.15 K, m1 = 0.075) was 1003.4 ± 0.22 kg/m3. The mass density (303.15 K, m1 = 0.1) was 1005.95 ± 0.21 kg/m3, the mass density (303.15 K, m1 = 0.125) was 1008.54 ± 0.21 kg/m3 and the mass density (303.15 K, m1 = 0.15) was 1011.11 ± 0.21 kg/m3. It also gave a mass density (303.15 K, m1 = 0.175) of 1013.63 ± 0.21 kg/m3, a mass density (303.15 K, m1 = 0.2) of 1016.15 ± 0.22 kg/m3 and a mass density (303.15 K, m1 = 0.25) of 1021.49 ± 0.22 kg/m3. The speed of sound (308.15 K, m1 = 0.01) was 1522.5 ± 1.3 m/s, the speed of sound (308.15 K, m1 = 0.02) was 1523.3 ± 1.3 m/s and the speed of sound (308.15 K, m1 = 0.03) was 1524.9 ± 1.3 m/s. For the same compound, the speed of sound (308.15 K, m1 = 0.04) was 1527 ± 1.3 m/s, the speed of sound (308.15 K, m1 = 0.05) was 1527.7 ± 1.3 m/s and the speed of sound (308.15 K, m1 = 0.075) was 1532.2 ± 1.3 m/s. It also gave a speed of sound (308.15 K, m1 = 0.1) of 1535.5 ± 1.3 m/s, a speed of sound (308.15 K, m1 = 0.125) of 1539.4 ± 1.3 m/s and a speed of sound (308.15 K, m1 = 0.15) of 1542.7 ± 1.3 m/s. It also gave a speed of sound (308.15 K, m1 = 0.175) of 1547.2 ± 1.3 m/s, a speed of sound (308.15 K, m1 = 0.2) of 1550.8 ± 1.3 m/s and a speed of sound (308.15 K, m1 = 0.25) of 1556 ± 1.3 m/s. The mass density (308.15 K, m1 = 0.01) was 995.17 ± 0.21 kg/m3, the mass density (308.15 K, m1 = 0.02) was 996.11 ± 0.2 kg/m3 and the mass density (308.15 K, m1 = 0.03) was 997.13 ± 0.21 kg/m3. For the same compound, the mass density (308.15 K, m1 = 0.04) was 998.13 ± 0.19 kg/m3, the mass density (308.15 K, m1 = 0.05) was 998.96 ± 0.22 kg/m3 and the mass density (308.15 K, m1 = 0.075) was 1001.71 ± 0.22 kg/m3. It also gave a mass density (308.15 K, m1 = 0.1) of 1004.24 ± 0.21 kg/m3, a mass density (308.15 K, m1 = 0.125) of 1006.74 ± 0.21 kg/m3 and a mass density (308.15 K, m1 = 0.15) of 1009.34 ± 0.21 kg/m3. It also gave a mass density (308.15 K, m1 = 0.175) of 1011.84 ± 0.21 kg/m3, a mass density (308.15 K, m1 = 0.2) of 1014.32 ± 0.22 kg/m3 and a mass density (308.15 K, m1 = 0.25) of 1019.63 ± 0.22 kg/m3. The speed of sound (313.15 K, m1 = 0.01) was 1531.5 ± 1.3 m/s, the speed of sound (313.15 K, m1 = 0.02) was 1532.2 ± 1.2 m/s and the speed of sound (313.15 K, m1 = 0.03) was 1533.7 ± 1.3 m/s. For the same compound, the speed of sound (313.15 K, m1 = 0.04) was 1535.7 ± 1.3 m/s, the speed of sound (313.15 K, m1 = 0.05) was 1536.3 ± 1.3 m/s and the speed of sound (313.15 K, m1 = 0.075) was 1540.5 ± 1.3 m/s. For the same compound, the speed of sound (313.15 K, m1 = 0.1) was 1543.6 ± 1.3 m/s, the speed of sound (313.15 K, m1 = 0.125) was 1547.3 ± 1.3 m/s and the speed of sound (313.15 K, m1 = 0.15) was 1550.4 ± 1.3 m/s. The speed of sound (313.15 K, m1 = 0.175) was 1554.6 ± 1.3 m/s, the speed of sound (313.15 K, m1 = 0.2) was 1558.1 ± 1.3 m/s and the speed of sound (313.15 K, m1 = 0.25) was 1563 ± 1.3 m/s. The mass density (313.15 K, m1 = 0.01) was 993.34 ± 0.21 kg/m3, the mass density (313.15 K, m1 = 0.02) was 994.28 ± 0.2 kg/m3 and the mass density (313.15 K, m1 = 0.03) was 995.29 ± 0.2 kg/m3. For the same compound, the mass density (313.15 K, m1 = 0.04) was 996.22 ± 0.19 kg/m3, the mass density (313.15 K, m1 = 0.05) was 997.1 ± 0.21 kg/m3 and the mass density (313.15 K, m1 = 0.075) was 999.82 ± 0.21 kg/m3. It also gave a mass density (313.15 K, m1 = 0.1) of 1002.31 ± 0.2 kg/m3, a mass density (313.15 K, m1 = 0.125) of 1004.79 ± 0.21 kg/m3 and a mass density (313.15 K, m1 = 0.15) of 1007.39 ± 0.21 kg/m3. The mass density (313.15 K, m1 = 0.175) was 1009.86 ± 0.2 kg/m3, the mass density (313.15 K, m1 = 0.2) was 1012.32 ± 0.21 kg/m3 and the mass density (313.15 K, m1 = 0.25) was 1017.59 ± 0.22 kg/m3.
With O [water] + NC(CO)(CO)CO.O=C(c1ccccc1)c1ccc2n1CCC2C(=O)O the speed of sound (313.15 K, m2 = 0) was 1529.1 ± 1.3 m/s.

Source: the NIST ThermoML archive (doi:10.1016/j.tca.2012.11.008)
